Measured values: US20220259234A1, “COT MODULATORS AND METHODS OF USE THEREOF” (Gilead Sciences, Inc., priority 2019, published 2022)
Converted amounts (≈) assume the structure as drawn. Read-outs that look alike come from different tables or passages of the source.

Columns and labels:
[1] = In vivo dog pharmacokinetics; settings: beagle dogs; for AUC0-72 h of the named analyte in plasma: label = analyte measured
[2] = Solubility in FaSSIF and FeSSIF; assay type: physicochemical; settings: thermodynamic from solid
Description: Solubility was determined at ambient temperature in buffered fasted-state simulated intestinal fluid (FaSSIF, pH 6.5) and buffered fed-state simulated intestinal fluid (FeSSIF, pH 5.0) prepared in-house using BioRelevant Simulated Intestinal Fluid (SIF) powder. Solids were added to FaSSIF or FeSSIF in 1.5-mL Eppendorf tubes, sonicated for 1 minute, then agitated for 2.5 hours in an Eppendorf ThermoMixer C. To determine concentration in solution, the suspensions were centrifuged for 10 min at 14,800 rpm and supernatants were diluted to a volume of 1 mL with 1:1 v/v acetonitrile:water. All diluted supernatants were analyzed by UPLC using a Waters Acquity UPLC with a PDA UV detector.

[3] = Human plasma stability; assay type: in vitro ADME; settings: substrate 2 μM, read-out: Human Plasma T½
Description: (§1) Plasma stability assays were performed in human and dog. Duplicate sets were performed with a tecan liquid handler or with cluster tubes in a heat block. Generally, a substrate concentration of 2 μM was used. Plasma in sodium EDTA was provided by BioIVT as whole plasma with K2 EDA as anti-coagulent.

[4] = Dog plasma stability; assay type: in vitro ADME; settings: substrate 2 μM, read-out: Dog Plasma T½
Description: as §1

[5] = Dog GI S9 stability
Description: (§2) GI S9 stability assays were performed. Generally, a substrate concentration of 2 μM was used, a protein concentration of 1.0 mg/mL intestinal S9 was used, and a reaction buffer of 1× phosphate buffered saline (PBS) was used. Intestinal S9 was provided by BioIVT (dog) or Xenotech (human). […] Plates were vortexed, and then centrifuged at 3000×G for 30 minutes. 150 μL of supernatant was transferred to new plates and 150 μL water was added. New plates were vortexed to mix.
(§3) Samples were analyzed with a Leap HTC Autosampler and a Dionex UltiMate 3000 HPLC system interfaced to a Thermo Q-Exactive mass spectrometer operation in positive ion electrospray mode. A Thermo Scientific Hypersil GOLD (1.9 μM particle size, 50×2.1 mm) HPLC column was used and mobile phase was pumped at 0.5 mL/min. Elution of analytes was achieved by a series of linear gradients of acetonitrile in water containing 0.1% (v/v) formic acid. Quantification was by analyte/internal standard peak area ratio (PAR).

[6] = Human GI S9 stability
Description: as §2, §3

[7] = oral powder in capsule, dosed Compound B 9.7 mg-eq/kg
[8] = fasted-state simulated intestinal fluid (FaSSIF), fassif, fasted-state simulated intestinal fluid pH 6.5, ambient temperature, read-out: FaSSIF (pH 6.5) solubility
[9] = fed-state simulated intestinal fluid (FeSSIF), fessif, fed-state simulated intestinal fluid pH 5.0, ambient temperature, read-out: FeSSIF (pH 5.0) solubility

solubility at 2.5 h [2, 8] [µg/mL]	solubility at 2.5 h [2, 9] [µg/mL]	half-life at 2 μM [3] [min]	half-life at 2 μM ([5]; intestinal S9) [min]	half-life at 2 μM ([6]; intestinal S9) [min]	Compound	further results
–	–	–	–	–	Cn1ccc2c([C@@H](c3cn(C45CC(C4)C5)nn3)N(C(=O)OCOP(=O)(O)O)c3cc(Cl)c4ncc(C#N)c(NCC(C)(C)C)c4c3)cccc2c1=O [Compound B]	AUC0-72 h of the named analyte in plasma [1, 7]: BLQ
–	–	–	–	–	Cn1ccc2c([C@@H](c3cn(C45CC(C4)C5)nn3)N(C(=O)OCCCOP(=O)(O)O)c3cc(Cl)c4ncc(C#N)c(NCC(C)(C)C)c4c3)cccc2c1=O [Compound C]	AUC0-72 h of the named analyte in plasma ([1]; oral 3 mg/mL solution, dosed Compound C 3 mg-eq/kg): BLQ; in vivo conversion of dosed compound ([1]; oral solution of Compound C, plasma over 72 hour): converted in vivo to both Compound D and Compound A in measurable amounts
> 1880	> 1910	14	1	< 1	C[C@H](N)C(=O)OCOC(=O)N(c1cc(Cl)c2ncc(C#N)c(NCC(C)(C)C)c2c1)[C@H](c1cn(C23CC(C2)C3)nn1)c1cccc2c(=O)n(C)ccc12 [Example 2, ((((S)-(1-(bicyclo[1.1.1]pentan-1-yl)-1H-1,2,3-triazol-4-yl)(2-methyl-1-oxo-1,2-dihydroisoquinolin-5-yl)methyl)(8-chloro-3-cyano-4-(neopentylamino)quinolin-6-yl)carbamoyl)oxy)methyl L-alaninate]	half-life at 2 μM [4]: 3 min
–	–	–	–	–	Cc1nc(F)ccc1[C@@H](c1cn(C23CC(C2)C3)nn1)N(C(=O)OCOP(=O)(O)O)c1cc(C#N)c2ncc(C#N)c(NCC(C)(C)C)c2c1 [Example 6, (Phosphonooxy)methyl (S)-((1-(bicyclo[1.1.1]pentan-1-yl)-1H-1,2,3-triazol-4-yl)(6-fluoro-2-methylpyridin-3-yl)methyl)(3,8-dicyano-4-(neopentylamino)quinolin-6-yl)carbamate]	half-life at 2 μM ([5]; s9): 14 min; half-life at 2 μM ([6]; s9): 25 min
12	42	–	–	3	CC(=O)OCOC(=O)N(c1cc(C#N)c2ncc(C#N)c(NCC(C)(C)C)c2c1)[C@H](c1cn(C23CC(C2)C3)nn1)c1ccc(F)nc1C [Example 7, (S)-((((1-(bicyclo[1.1.1]pentan-1-yl)-1H-1,2,3-triazol-4-yl)(6-fluoro-2-methylpyridin-3-yl)methyl)(3,8-dicyano-4-(neopentylamino)quinolin-6-yl)carbamoyl)oxy)methyl acetate]	–
77 (≈ 105 µM)	450 (≈ 612 µM)	237	–	165	Cc1nc(F)ccc1[C@@H](c1cn(C23CC(C2)C3)nn1)N(C(=O)OCOC(=O)C1CCN(C)CC1)c1cc(C#N)c2ncc(C#N)c(NCC(C)(C)C)c2c1 [Example 8, (S)-((((1-(bicyclo[1.1.1]pentan-1-yl)-1H-1,2,3-triazol-4-yl)(6-fluoro-2-methylpyridin-3-yl)methyl)(3,8-dicyano-4-(neopentylamino)quinolin-6-yl)carbamoyl)oxy)methyl 1-methylpiperidine-4-carboxylate]	–
12 (≈ 18.4 µM)	52 (≈ 79.8 µM)	1580	–	789	COC[C@@H](C)OC(=O)N(c1cc(C#N)c2ncc(C#N)c(NCC(C)(C)C)c2c1)[C@H](c1cn(C23CC(C2)C3)nn1)c1ccc(F)nc1C [Example 9, (R)-1-methoxypropan-2-yl ((S)-(1-(bicyclo[1.1.1]pentan-1-yl)-1H-1,2,3-triazol-4-yl)(6-fluoro-2-methylpyridin-3-yl)methyl)(3,8-dicyano-4-(neopentylamino)quinolin-6-yl)carbamate]	–
–	–	–	–	–	Cc1nc(F)ccc1[C@@H](c1cn(C23CC(C2)C3)nn1)N(C(=O)OCOP(=O)(O)O)c1cc(C#N)c2ncc(C#N)c(N[C@H](C)C(C)(C)C)c2c1 [Example 10, (Phosphonooxy)methyl ((S)-(1-(bicyclo[1.1.1]pentan-1-yl)-1H-1,2,3-triazol-4-yl)(6-fluoro-2-methylpyridin-3-yl)methyl)(3,8-dicyano-4-(((R)-3,3-dimethylbutan-2-yl)amino)quinolin-6-yl)carbamate]	half-life at 2 μM ([5]; s9): 20 min; half-life at 2 μM ([6]; s9): 26 min
–	–	–	528	477	COC[C@@H](C)OC(=O)N(c1cc(C#N)c2ncc(C#N)c(N[C@H](C)C(C)(C)C)c2c1)[C@H](c1cn(C23CC(C2)C3)nn1)c1ccc(F)nc1C [Example 12, (R)-1-methoxypropan-2-yl ((S)-(1-(bicyclo[1.1.1]pentan-1-yl)-1H-1,2,3-triazol-4-yl)(6-fluoro-2-methylpyridin-3-yl)methyl)(3,8-dicyano-4-(((R)-3,3-dimethylbutan-2-yl)amino)quinolin-6-yl)carbamate]	–
–	–	–	789	789	Cc1nc(F)ccc1[C@@H](c1cn(C23CC(C2)C3)nn1)N(C(=O)C(=O)O)c1cc(C#N)c2ncc(C#N)c(N[C@H](C)C(C)(C)C)c2c1 [Example 13, 2-(((S)-(1-(bicyclo[1.1.1]pentan-1-yl)-1H-1,2,3-triazol-4-yl)(6-fluoro-2-methylpyridin-3-yl)methyl)(3,8-dicyano-4-(((R)-3,3-dimethylbutan-2-yl)amino)quinolin-6-yl)amino)-2-oxoacetic acid]	–
–	–	–	–	–	Cn1ccc2c([C@@H](c3cn(C45CC(C4)C5)nn3)N(C(=O)OCO)c3cc(Cl)c4ncc(C#N)c(NCC(C)(C)C)c4c3)cccc2c1=O [Intermediate A]	AUC0-72 h of the named analyte in plasma [1, 7]: BLQ

Compound	solubility at 2.5 h [2, 8] [µg/mL]	solubility at 2.5 h [2, 9] [µg/mL]	half-life at 2 μM [3] [min]	half-life at 2 μM ([5]; intestinal S9) [min]	half-life at 2 μM ([6]; intestinal S9) [min]	further results
Cn1ccc2c([C@@H](c3cn(C45CC(C4)C5)nn3)N(C(=O)OCOP(=O)(O)O)c3cc(Cl)c4ncc(C#N)c(NCC(C)(C)C)c4c3)cccc2c1=O [Example 1, (Phosphonooxy)methyl (S)-((1-(bicyclo[1.1.1]pentan-1-yl)-1H-1,2,3-triazol-4-yl)(2-methyl-1-oxo-1,2-dihydroisoquinolin-5-yl)methyl)(8-chloro-3-cyano-4-(neopentylamino)quinolin-6-yl)carbamate]	> 1580	> 2170	369	26	43	half-life at 2 μM [4]: 278 min
Cn1ccc2c([C@@H](c3cn(C45CC(C4)C5)nn3)N(C(=O)OCCCOP(=O)(O)O)c3cc(Cl)c4ncc(C#N)c(NCC(C)(C)C)c4c3)cccc2c1=O [Example 4, 3-(Phosphonooxy)propyl (S)-((1-(bicyclo[1.1.1]pentan-1-yl)-1H-1,2,3-triazol-4-yl)(2-methyl-1-oxo-1,2-dihydroisoquinolin-5-yl)methyl)(8-chloro-3-cyano-4-(neopentylamino)quinolin-6-yl)carbamate]	4 (≈ 5.16 µM)	210 (≈ 271 µM)	–	–	–	half-life at 2 μM ([5]; s9): 12 min; half-life at 2 μM ([6]; s9): 21 min
